Measurements published in publication PMC9148196 (The AAPS journal, 2021).

Target: P-glycoprotein (P-gp, MDR1) (Homo sapiens, UniProt P08183)
Assay: basal-to-apical [3H]digoxin flux in MDCK-hMDR1-cMDR1-KO cells, dose-response
Assay type: cell-based

Sequence of P-glycoprotein (P-gp, MDR1) (P08183 whole entry): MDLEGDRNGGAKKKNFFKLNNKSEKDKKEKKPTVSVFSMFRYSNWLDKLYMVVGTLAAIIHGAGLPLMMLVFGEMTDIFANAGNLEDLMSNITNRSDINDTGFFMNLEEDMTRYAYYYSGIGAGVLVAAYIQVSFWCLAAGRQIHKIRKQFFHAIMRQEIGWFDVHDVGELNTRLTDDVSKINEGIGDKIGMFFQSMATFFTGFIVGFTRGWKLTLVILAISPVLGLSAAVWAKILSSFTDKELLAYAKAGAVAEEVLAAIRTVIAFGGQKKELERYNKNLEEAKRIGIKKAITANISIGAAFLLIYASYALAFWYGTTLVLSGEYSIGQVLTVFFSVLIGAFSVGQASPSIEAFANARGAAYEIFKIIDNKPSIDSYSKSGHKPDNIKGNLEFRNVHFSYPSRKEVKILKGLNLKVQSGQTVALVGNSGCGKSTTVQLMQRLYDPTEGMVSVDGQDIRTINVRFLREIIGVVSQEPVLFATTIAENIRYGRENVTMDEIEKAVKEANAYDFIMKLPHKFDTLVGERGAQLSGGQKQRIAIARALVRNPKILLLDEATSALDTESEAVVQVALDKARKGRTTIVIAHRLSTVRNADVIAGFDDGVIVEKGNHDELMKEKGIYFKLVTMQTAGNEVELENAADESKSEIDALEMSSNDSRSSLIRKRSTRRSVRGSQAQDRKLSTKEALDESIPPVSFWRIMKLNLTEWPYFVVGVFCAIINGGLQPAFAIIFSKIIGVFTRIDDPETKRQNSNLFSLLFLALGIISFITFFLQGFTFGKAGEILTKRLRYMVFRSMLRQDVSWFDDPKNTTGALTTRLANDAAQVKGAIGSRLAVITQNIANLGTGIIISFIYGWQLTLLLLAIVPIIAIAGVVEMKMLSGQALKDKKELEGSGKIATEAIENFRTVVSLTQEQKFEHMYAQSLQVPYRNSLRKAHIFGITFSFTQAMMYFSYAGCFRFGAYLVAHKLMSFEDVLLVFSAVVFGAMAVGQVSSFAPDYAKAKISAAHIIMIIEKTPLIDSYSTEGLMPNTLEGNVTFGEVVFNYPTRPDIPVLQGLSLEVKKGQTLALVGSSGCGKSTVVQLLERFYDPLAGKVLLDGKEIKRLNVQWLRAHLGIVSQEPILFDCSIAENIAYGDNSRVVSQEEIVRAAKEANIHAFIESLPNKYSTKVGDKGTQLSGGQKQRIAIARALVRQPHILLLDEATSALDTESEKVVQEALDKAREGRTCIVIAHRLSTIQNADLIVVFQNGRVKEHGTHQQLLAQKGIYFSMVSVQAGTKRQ

IC50: 204 µM
Structure (SMILES): CCN(Cc1cccc(S(=O)(=O)O)c1)c1ccc(C(=C2C=CC(=[N+](CC)Cc3cccc(S(=O)(=O)[O-])c3)C=C2)c2ccc(S(=O)(=O)O)cc2)cc1 [Light green SF yellowish]
